Measurements reported in patent US12428406B2 (PMV Pharmaceuticals, Inc., priority 2019, dated 2025).

Molecular target: T1, p53 Y220C (Homo sapiens, UniProt P04637, Y220C)
T1 construct: The recombinant protein was a truncation mutant containing only amino acids 94-312 of p53; made in house; host or cells: E. coli
Assay: In vitro DNA binding activity assay (HTRF / TR-FRET): stabilization of p53 Y220C and increase of its DNA binding activity
Type: biochemical
Conditions: recombinant His-tagged p53 Y220C DNA binding domain (aa 94-312), biotin-labeled consensus DNA, incubated at 27° C. or 29° C. for 60 min
Summary of the method: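 Compound effect on DNA binding of recombinant His-p53 Y220C (E. coli) to biotin-labeled consensus DNA, expressed as SC150, the concentration giving 50% increase versus untreated. Serial 3-fold DMSO dilutions of 4.5 mM stocks; room-temperature steps of 15 then 20 min.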

T1 sequence (P04637 94-312, change not shown): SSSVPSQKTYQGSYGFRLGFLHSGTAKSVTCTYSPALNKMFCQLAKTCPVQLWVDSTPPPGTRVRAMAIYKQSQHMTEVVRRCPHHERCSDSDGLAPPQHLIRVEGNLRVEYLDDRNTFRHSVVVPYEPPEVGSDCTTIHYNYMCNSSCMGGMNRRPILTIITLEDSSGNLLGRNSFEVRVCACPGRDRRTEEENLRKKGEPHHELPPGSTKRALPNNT

SC150 (concentration of the compound required to increase the DNA binding activity by 50%)	Structure (SMILES)
+ (+ = 0 μM ≤ SC150 < 0.05 μM)	COc1cc(S(C)(=O)=O)ccc1NCC#Cc1cc2c(NC3CCN(CC(C)(C)OC)CC3)cccc2n1CC(F)(F)F [Compound 692A, 2-{3-[(4-methanesulfonyl-2-methoxyphenyl)amino]prop-1-yn-1-yl}-N-[1-(2-methoxy-2-methylpropyl)piperidin-4-yl]-1-(2,2,2-trifluoroethyl)-1H-indol-4-amine]
+ (+ = 0 μM ≤ SC150 < 0.05 μM)	COCC(O)CN1CCC(Nc2cccc3c2cc(C#CCNc2ccc(S(=O)(=O)C(C)C)cc2OC)n3CC(F)(F)F)CC1 (stereo not shown) [Compound 694A, 1-methoxy-3-(4-{[2-(3-{[2-methoxy-4-(propane-2-sulfonyl)phenyl]amino}prop-1-yn-1-yl)-1-(2,2,2-trifluoroethyl)-1H-indol-4-yl]amino}piperidin-1-yl)propan-2-ol]
+ (+ = 0 μM ≤ SC150 < 0.05 μM)	COCC(O)CN1CCCC(Nc2cccc3c2cc(C#CCNc2ccc(S(C)(=O)=O)cc2OC)n3CC(F)(F)F)C1 (stereo not shown) [Compound 695A, 1-{3-[(2-{3-[(4-methanesulfonyl-2-methoxyphenyl)amino]prop-1-yn-1-yl}-1-(2,2,2-trifluoroethyl)-1H-indol-4-yl)amino]piperidin-1-yl}-3-methoxypropan-2-ol]
+ (+ = 0 μM ≤ SC150 < 0.05 μM)	CCCn1c(C#CCNc2ccc(S(C)(=O)=O)cc2OC)cc2c(NC3CCN(CC(O)COC)CC3)cccc21 (stereo not shown) [Compound 697A, 1-{4-[(2-{3-[(4-methanesulfonyl-2-methoxyphenyl)amino]prop-1-yn-1-yl}-1-propyl-1H-indol-4-yl)amino]piperidin-1-yl}-3-methoxypropan-2-ol]
+ (+ = 0 μM ≤ SC150 < 0.05 μM)	COCC(O)CN1CCC(Nc2cccc3c2cc(C#CCNc2ccc(S(C)(=O)=O)cc2OC)n3CCF)CC1 (stereo not shown) [Compound 698A, 1-(4-{[1-(2-fluoroethyl)-2-{3-[(4-methanesulfonyl-2-methoxyphenyl)amino]prop-1-yn-1-yl}-1H-indol-4-yl]amino}piperidin-1-yl)-3-methoxypropan-2-ol]
+ (+ = 0 μM ≤ SC150 < 0.05 μM)	COCC(O)CN1CCC(Nc2cccc3c2cc(C#CCNc2ccc(S(C)(=O)=O)cc2OC)n3CC#N)CC1 (stereo not shown) [Compound 699A, 2-(4-{[1-(2-hydroxy-3-methoxypropyl)piperidin-4-yl]amino}-2-{3-[(4-methanesulfonyl-2-methoxyphenyl)amino]prop-1-yn-1-yl}-1H-indol-1-yl)acetonitrile]
+ (+ = 0 μM ≤ SC150 < 0.05 μM)	COCC(O)CN1CCC(Nc2cccc3c2cc(C#CCNc2ccc(S(C)(=O)=O)cc2OC)n3CCCl)CC1 (stereo not shown) [Compound 700A, 1-(4-{[1-(2-chloroethyl)-2-{3-[(4-methanesulfonyl-2-methoxyphenyl)amino]prop-1-yn-1-yl}-1H-indol-4-yl]amino}piperidin-1-yl)-3-methoxypropan-2-ol]
+ (+ = 0 μM ≤ SC150 < 0.05 μM)	COCC(O)CN1CCC(Nc2cccc3c2cc(C#CCNc2ccc(S(C)(=O)=O)cc2C)n3CC(F)(F)F)CC1 (stereo not shown) [Compound 703A, 1-{4-[(2-{3-[(4-methanesulfonyl-2-methylphenyl)amino]prop-1-yn-1-yl}-1-(2,2,2-trifluoroethyl)-1H-indol-4-yl)amino]piperidin-1-yl}-3-methoxypropan-2-ol]
++ (++ = 0.05 μM ≤ SC150 < 0.1 μM)	COCC(O)CN1CCC(Nc2cccc3c2cc(C#CCNc2ccc(S(C)(=O)=O)cc2OC)n3CC2CC2(F)F)CC1 (stereo not shown) [Compound 704A, 1-[4-({1-[(2,2-difluorocyclopropyl)methyl]-2-{3-[(4-methanesulfonyl-2-methoxyphenyl)amino]prop-1-yn-1-yl}-1H-indol-4-yl}amino)piperidin-1-yl]-3-methoxypropan-2-ol]
+ (+ = 0 μM ≤ SC150 < 0.05 μM)	COCC(O)CN1CCC(Nc2cccc3c2cc(C#CCNc2ccc(C(=O)O)cc2OC)n3CC(F)(F)F)CC1 (stereo not shown) [Compound 705A, 4-{[3-(4-{[1-(2-hydroxy-3-methoxypropyl)piperidin-4-yl]amino}-1-(2,2,2-trifluoroethyl)-1H-indol-2-yl)prop-2-yn-1-yl]amino}-3-methoxybenzoic acid]
+ (+ = 0 μM ≤ SC150 < 0.05 μM)	COc1cc(S(C)(=O)=O)ccc1NCC#Cc1cc2c(NC3CCN(CCCS(C)(=O)=O)CC3)cccc2n1CC(F)(F)F [Compound 706A, 2-{3-[(4-methanesulfonyl-2-methoxyphenyl)amino]prop-1-yn-1-yl}-N-[1-(3-methanesulfonylpropyl)piperidin-4-yl]-1-(2,2,2-trifluoroethyl)-1H-indol-4-amine]
+ (+ = 0 μM ≤ SC150 < 0.05 μM)	COc1cc(C(=O)O)ccc1NCC#Cc1cc2c(NC3CCN(CCCS(C)(=O)=O)CC3)cccc2n1CC(F)(F)F [Compound 707A, 4-{[3-(4-{[1-(3-methanesulfonylpropyl)piperidin-4-yl]amino}-1-(2,2,2-trifluoroethyl)-1H-indol-2-yl)prop-2-yn-1-yl]amino}-3-methoxybenzoic acid]
++ (++ = 0.05 μM ≤ SC150 < 0.1 μM)	COCC(O)CN1CCC(Nc2cccc3c2cc(C#CCNc2ccc(S(C)(=O)=O)cc2C(F)(F)F)n3CC(F)(F)F)CC1 (stereo not shown) [Compound 708A, 1-(4-{[2-(3-{[4-methanesulfonyl-2-(trifluoromethyl)phenyl]amino}prop-1-yn-1-yl)-1-(2,2,2-trifluoroethyl)-1H-indol-4-yl]amino}piperidin-1-yl)-3-methoxypropan-2-ol]
+ (+ = 0 μM ≤ SC150 < 0.05 μM)	COCC(O)CN1CCC(Nc2cccc3c2cc(C#CCNc2ccc(S(C)(=O)=O)cc2OC)n3CC(F)F)CC1 (stereo not shown) [Compound 709A, 1-(4-{[1-(2,2-difluoroethyl)-2-{3-[(4-methanesulfonyl-2-methoxyphenyl)amino]prop-1-yn-1-yl}-1H-indol-4-yl]amino}piperidin-1-yl)-3-methoxypropan-2-ol]
+ (+ = 0 μM ≤ SC150 < 0.05 μM)	COCC(O)CN1CCC(Nc2cccc3c2cc(C#CCNc2ccc(S(C)(=O)=O)cc2OC(F)(F)F)n3CC(F)(F)F)CC1 (stereo not shown) [Compound 710A, 1-(4-{[2-(3-{[4-methanesulfonyl-2-(trifluoromethoxy)phenyl]amino}prop-1-yn-1-yl)-1-(2,2,2-trifluoroethyl)-1H-indol-4-yl]amino}piperidin-1-yl)-3-methoxypropan-2-ol]
++ (++ = 0.05 μM ≤ SC150 < 0.1 μM)	COCC(O)CN1CCC(Nc2cccc3c2cc(C#CCNc2ccc(S(C)(=O)=O)cc2OC)n3CCC(F)(F)F)CC1 (stereo not shown) [Compound 711A, 1-{4-[(2-{3-[(4-methanesulfonyl-2-methoxyphenyl)amino]prop-1-yn-1-yl}-1-(3,3,3-trifluoropropyl)-1H-indol-4-yl)amino]piperidin-1-yl}-3-methoxypropan-2-ol]
